Measured values from paper PMC9090415, “Discovery of small molecule inhibitors of Plasmodium falciparum apicoplast DNA polymerase” (Journal of Enzyme Inhibition and Medicinal Chemistry, 2022).

Biological target: P. falciparum apicoplast DNA polymerase (Pf-apPOL) (Plasmodium falciparum, UniProt Q8ILY1)
Test: Fluorescence-based high-throughput DNA polymerase assay (molecular beacon), primary screen and dose-response
Format: biochemical
Settings: for DNA Pol: 90 min, 10 µM
Procedure, shortened: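 Single-point screening used 10 µM compound with 20 nM polymerase, 20 nM hairpin substrate and 6 µM dNTPs for 90 min at 25 °C. Confirmatory titrations (2.5–80 µM) followed fluorescence at three times, and IC50 was derived from a fit including a cooperativity term n.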

Chain of P. falciparum apicoplast DNA polymerase (Pf-apPOL) (Q8ILY1 entry or part of it): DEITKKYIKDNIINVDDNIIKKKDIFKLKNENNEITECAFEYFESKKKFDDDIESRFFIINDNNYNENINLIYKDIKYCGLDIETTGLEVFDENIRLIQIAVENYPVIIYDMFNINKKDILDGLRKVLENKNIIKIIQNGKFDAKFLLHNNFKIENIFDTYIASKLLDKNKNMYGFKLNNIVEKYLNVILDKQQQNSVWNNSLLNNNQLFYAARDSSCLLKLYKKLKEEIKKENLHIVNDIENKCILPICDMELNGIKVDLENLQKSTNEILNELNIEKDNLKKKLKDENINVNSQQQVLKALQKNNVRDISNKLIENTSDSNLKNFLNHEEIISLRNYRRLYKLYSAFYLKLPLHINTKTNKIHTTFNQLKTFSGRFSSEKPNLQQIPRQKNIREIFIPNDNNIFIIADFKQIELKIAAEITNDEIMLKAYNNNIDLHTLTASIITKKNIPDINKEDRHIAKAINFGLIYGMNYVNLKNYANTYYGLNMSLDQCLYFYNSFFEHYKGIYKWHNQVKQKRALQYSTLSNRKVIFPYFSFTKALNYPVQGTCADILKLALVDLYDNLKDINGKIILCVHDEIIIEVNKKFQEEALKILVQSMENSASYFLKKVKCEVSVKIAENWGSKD

`O=C(NCC1CCN(C2CCCC2)CC1)C(=O)NC1CCCC1` [KU0199596] was tested, and the “% inhibition Apo pol 10'” value (DRC-1, concentration 2.5) was 0.01298%, the “% inhibition Apo pol 10'” value (DRC-1, concentration 5) was -3.723% and the “% inhibition Apo pol 10'” value (DRC-1, concentration 10) was 11.8369%. The “% inhibition Apo pol 10'” value (DRC-1, concentration 20) was 30.2117%, the “% inhibition Apo pol 10'” value (DRC-1, concentration 40) was 52.3157% and the “% inhibition Apo pol 10'” value (DRC-1, concentration 80) was 62.5585%. The “% inhibition Apol 90'” value (DRC-1, concentration 2.5) was 3.739%, the “% inhibition Apol 90'” value (DRC-1, concentration 5) was 4.197% and the “% inhibition Apol 90'” value (DRC-1, concentration 10) was 23.1731%. For the same compound, the “% inhibition Apol 90'” value (DRC-1, concentration 20) was 45.2225%, the “% inhibition Apol 90'” value (DRC-1, concentration 40) was 64.9359% and the “% inhibition Apol 90'” value (DRC-1, concentration 80) was 71.081%. For the same compound, the “% inhibition apPOL 180'” value (DRC-1, concentration 2.5) was 10.6167%, the “% inhibition apPOL 180'” value (DRC-1, concentration 5) was 16.0151% and the “% inhibition apPOL 180'” value (DRC-1, concentration 10) was 39.3373%. The “% inhibition apPOL 180'” value (DRC-1, concentration 20) was 63.8149%, the “% inhibition apPOL 180'” value (DRC-1, concentration 40) was 81.7381% and the “% inhibition apPOL 180'” value (DRC-1, concentration 80) was 87.3658%. The “% inhibition Apo pol 5'” value (DRC-2, concentration 2.5) was 6%, the “% inhibition Apo pol 5'” value (DRC-2, concentration 5) was 9% and the “% inhibition Apo pol 5'” value (DRC-2, concentration 10) was 24%. The “% inhibition Apo pol 5'” value (DRC-2, concentration 20) was 35%, the “% inhibition Apo pol 5'” value (DRC-2, concentration 40) was 45% and the “% inhibition Apo pol 5'” value (DRC-2, concentration 80) was 45%. The “% inhibition Apol 40'” value (DRC-2, concentration 2.5) was 2.8%, the “% inhibition Apol 40'” value (DRC-2, concentration 5) was -3% and the “% inhibition Apol 40'” value (DRC-2, concentration 10) was 21%. For the same compound, the “% inhibition Apol 40'” value (DRC-2, concentration 20) was 34%, the “% inhibition Apol 40'” value (DRC-2, concentration 40) was 44% and the “% inhibition Apol 40'” value (DRC-2, concentration 80) was 41%. The “% inhibition ApPOL 90'” value (DRC-2, concentration 2.5) was 2.29%, the “% inhibition ApPOL 90'” value (DRC-2, concentration 5) was -11% and the “% inhibition ApPOL 90'” value (DRC-2, concentration 10) was 19%. For the same compound, the “% inhibition ApPOL 90'” value (DRC-2, concentration 20) was 30%, the “% inhibition ApPOL 90'” value (DRC-2, concentration 40) was 40% and the “% inhibition ApPOL 90'” value (DRC-2, concentration 80) was 39%. The “% inhibition apPOL 180'” value (DRC-2, concentration 2.5) was -0.788%, the “% inhibition apPOL 180'” value (DRC-2, concentration 5) was -84% and the “% inhibition apPOL 180'” value (DRC-2, concentration 10) was 8%. The “% inhibition apPOL 180'” value (DRC-2, concentration 20) was 16%, the “% inhibition apPOL 180'” value (DRC-2, concentration 40) was 30% and the “% inhibition apPOL 180'” value (DRC-2, concentration 80) was 34%. For the same compound, the “% inhibition Apol 40'” value (conc. 20, DRC-2) was 34%, the “% inhibition ApPOL 90'” value (conc. 20, DRC-2) was 30% and the “% inhibition Apo pol 5'” value (conc. 40, DRC-2) was 45%. The “% inhibition apPOL 180'” value (conc. 40, DRC-2) was 30%, the “% inhibition Apo pol 5'” value (conc. 80, DRC-2) was 45% and the “% inhibition apPOL 180'” value (conc. 80, DRC-2) was 34%. For the same compound, the “DNA Pol” value (primary screen value by plate and well) was 24 and the “DNA Pol” value (primary screen value of the 186 hits, unit not given) was 24.

`COc1ccccc1CC(=O)N1CCc2c(nc3cc(-c4ccccc4Cl)[nH]n3c2=O)C1` [Molecule 49] was tested, and the IC50 (supplemental file 2, sheet IC50 nontoxic compounds, Pf-apPOL) was 12.5 µM.
